Data set [1] addresses T1, C-X-C chemokine receptor type 4 (Homo sapiens, UniProt P61073). Put plainly: Displacement of biotinylated-TN14003 from CXCR4 in human MDA-MB-231 cells assessed as reduction in fluorescence preincubated for 10 mins followed by biotinylated-TN14003 addition measured after 30 mins by streptavidin-rhodamine staining based microscopic analysis. Type of data set: cell-based.

In data set [2] the test system is Mus musculus. Put plainly: Toxicity in carrageenan-induced paw edema C57BL/6J mouse model assessed as mortality at 10 mg/kg administered 30 mins after carrageenan challenge and then once daily following initial dose measured 74 hrs post inflammation induction and 2 hrs post last dose. The following applies: in vivo. Type of data set: organism-based. (In general: Carrageenan injected into the paw causes an acute inflammation.)

The target in data set [3] is T1, C-X-C chemokine receptor type 4. Put plainly: Inhibition of CXCR4/CXCL12 interaction-mediated chemotaxis in human MDA-MB-231 cells assessed as inhibition of cell invasion at 100 nM after 22 hrs by hematoxylin/eosin dye-based matrigel assay relative to control.
For data set [4], the system named is Mus musculus. Put plainly: Anti-inflammatory activity in C57BL/6J mouse assessed as suppression of carrageenan-induced paw edema at 10 mg/kg administered 30 mins after carrageenan challenge and then once daily following initial dose measured 74 hrs post inflammation induction and 2 hrs post last dose relative to control. Type of data set: functional.
In data set [5] the test system is Mus musculus. Put plainly: Antiinflammatory activity in C57BL/6J mouse paw assessed as reduction in carrageenan-induced paw edema volume at 10 mg/kg administered 30 mins after carrageenan challenge and then once daily following initial dose measured 74 hrs post inflammation induction and 2 hrs post last dose by hematoxylin and eosin-staining based assay. Type of data set: functional, organism-based.

SMILES strings stand for the structures. Activity calls are given as the source filed them. The rule behind the calls is not given here.

Usually IC50 stands for the midpoint of a concentration-inhibition curve. For orientation: inhibition means the drop in the measured response relative to a control, in per cent. As a reminder, the inhibition in vivo is the percentage by which the read-out fell short of the control.

T1 sequence (P61073 whole entry): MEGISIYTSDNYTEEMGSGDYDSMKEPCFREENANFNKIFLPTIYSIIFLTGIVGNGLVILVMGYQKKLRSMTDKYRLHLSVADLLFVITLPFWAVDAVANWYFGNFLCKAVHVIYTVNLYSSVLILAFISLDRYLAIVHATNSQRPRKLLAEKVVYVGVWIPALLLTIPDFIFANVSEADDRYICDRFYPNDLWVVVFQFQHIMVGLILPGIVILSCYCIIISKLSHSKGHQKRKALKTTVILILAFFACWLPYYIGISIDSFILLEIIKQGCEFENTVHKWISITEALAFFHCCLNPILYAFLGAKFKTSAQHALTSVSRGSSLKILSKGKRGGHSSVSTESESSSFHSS

In the case of `CCc1ccc(NCc2cccc(CNc3ccc(CC)cc3)n2)cc1`, in data set [1], the EC came to 1 nM and the IC50 worked out at 0.0196 µM. The Activity entry in the data set on Mus musculus [2] is reported as “Non-Toxic”. Besides, the inhibition in data set [3] worked out at 64%. Besides, the inhibition in vivo at 10 mg/kg in the data set with Mus musculus [4] amounted to 42%.

`Clc1ccc(NCc2cccc(CNc3ccc(Cl)cc3)n2)cc1`: in data set [1], the EC turned out to be 100 nM. For the same compound, the inhibition in data set [3] came out at 21%.

In the case of `COc1cccc(NCc2cccc(CNc3cccc(OC)c3)n2)c1`, the EC in data set [1] came out at 100 nM. Moreover, the Activity result in the data set on Mus musculus [2] is “Non-Toxic”. Also, the inhibition in data set [3] came out at 37%. For the same compound, the inhibition in vivo at 10 mg/kg in the data set with Mus musculus [4] was 20.1%.

`COc1ccccc1NCc1ccc(CNc2ccccc2OC)nc1`: in data set [1], the EC turned out to be 100 nM. Further, the inhibition in data set [3] was less than 5%.

As for `c1cc(CN2CCOCC2)nc(CN2CCOCC2)c1`, in data set [1], the EC came to 10 nM and the half-inhibitory concentration (IC50) was 0.0357 µM. The Activity result in the data set with Mus musculus [2] was “Non-Toxic”. In data set [3], the inhibition was determined as 63%. In the data set with Mus musculus [4], the inhibition in vivo at 10 mg/kg was found to be 39.1%.

On to `FC(F)(F)c1cccc(NCc2cccc(CNc3cccc(C(F)(F)F)c3)n2)c1`, for which, in data set [1], the EC was 1000 nM. Also, the inhibition in data set [3] was determined as 15%.

With `Fc1cccc(NCc2cccc(CNc3cccc(F)c3)n2)c1`, the EC in data set [1] turned out to be 10 nM. For the same compound, in the data set on Mus musculus [2], the Activity result is “Non-Toxic”. Further, in the data set with Mus musculus [5], the outcome was Active. The inhibition in data set [3] came out at 50%. Further, the inhibition in vivo at 10 mg/kg in the data set on Mus musculus [4] amounted to 20.3%.

In the case of `c1ccc(NCc2cccc(CNc3ccccc3)n2)cc1`, the EC in data set [1] was determined as 100 nM. Besides, in data set [3], the inhibition is less than 1%.

Consider `Cc1ccccc1NCc1cccc(CNc2ccccc2C)n1`, for which, in data set [1], the EC is more than 1000 nM.

`Fc1ccccc1NCc1cccc(CNc2ccccc2F)n1`: in data set [1], the EC stood at 1000 nM.

Regarding `Clc1cccc(NCc2cccc(CNc3cccc(Cl)c3)n2)c1`, the EC in data set [1] stood at 100 nM. Also, in data set [3], the inhibition was found to be 34%.

In the case of `Fc1ccc(NCc2cccc(CNc3ccc(F)cc3)n2)cc1`, the EC in data set [1] was determined as 100 nM. Also, the inhibition in data set [3] is 5%.

For `Clc1ccccc1NCc1cccc(CNc2ccccc2Cl)n1`, the EC in data set [1] was more than 1000 nM.

For `CCc1cccc(NCc2cccc(CNc3cccc(CC)c3)n2)c1`, in data set [1], the EC was found to be 1000 nM.

As for `O=[N+]([O-])c1cccc(NCc2cccc(CNc3cccc([N+](=O)[O-])c3)n2)c1`, the EC in data set [1] is more than 1000 nM.

With `CSc1ccc(NCc2cccc(CNc3ccc(SC)cc3)n2)cc1`, the EC in data set [1] was more than 1000 nM.

As for `Fc1ccc(CNc2ccc(NCc3ccc(F)cc3)nc2)cc1`, the EC in data set [1] is more than 1000 nM.

Consider `Fc1cccc(NCc2ccc(CNc3cccc(F)c3)nc2)c1`, for which the EC in data set [1] came out at 1000 nM.

On to `Cc1cccc(NCc2ccc(CNc3cccc(C)c3)nc2)c1`, for which the EC in data set [1] came to 1 nM. In addition, the Activity entry with Mus musculus [2] was “Non-Toxic”. Moreover, the inhibition in data set [3] was determined as 58%.

As to `FC(F)(F)c1ccccc1NCc1cccc(CNc2ccccc2C(F)(F)F)n1`, the EC in data set [1] was more than 1000 nM.

In the case of `Clc1cccc(CNc2ccc(NCc3cccc(Cl)c3)nc2)c1`, the EC in data set [1] amounted to 1000 nM.

As to `COc1ccc(NCc2cccc(CNc3ccc(OC)cc3)n2)cc1`, the EC in data set [1] stood at 100 nM. Moreover, in data set [3], the inhibition came to 5%.

Consider `COc1ccccc1NCc1cccc(CNc2ccccc2OC)n1`, for which the EC in data set [1] amounted to 1000 nM. In data set [3], the inhibition came out at 0%.

As to `CCOc1ccc(CNc2ccc(NCc3ccc(OCC)cc3)nc2)cc1`, the EC in data set [1] stood at 100 nM. For the same compound, the Activity result in the data set on Mus musculus [2] is “Non-Toxic”. The inhibition in data set [3] is 60%.

Regarding `Cc1cccc(NCc2cccc(CNc3cccc(C)c3)n2)c1`, in data set [1], the EC came out at 100 nM. In addition, in the data set on Mus musculus [2], the Activity result is “Non-Toxic”. Besides, in data set [3], the inhibition came out at 60%. For the same compound, the inhibition in vivo at 10 mg/kg with Mus musculus [4] is 20.2%.

On to `O=[N+]([O-])c1ccc(NCc2cccc(CNc3ccc([N+](=O)[O-])cc3)n2)cc1`, for which the EC in data set [1] is more than 1000 nM.

For `CCc1ccccc1NCc1cccc(CNc2ccccc2CC)n1`, the EC in data set [1] came to 1 nM. Also, the Activity entry with Mus musculus [2] is recorded as “Non-Toxic”. In addition, the inhibition in data set [3] is 59%. In addition, the inhibition in vivo at 10 mg/kg in the data set on Mus musculus [4] turned out to be 18.1%.

For `FC(F)(F)c1ccc(NCc2cccc(CNc3ccc(C(F)(F)F)cc3)n2)cc1`, the EC in data set [1] was 1 nM. Further, the Activity result with Mus musculus [2] was “Non-Toxic”. In data set [3], the inhibition came out at 52%. The inhibition in vivo at 10 mg/kg in the data set on Mus musculus [4] is 20.3%.

With `COc1ccc(CNc2ccc(NCc3ccc(OC)cc3)nc2)cc1`, in data set [1], the EC amounted to 1000 nM.

`Cc1ccc(NCc2cccc(CNc3ccc(C)cc3)n2)cc1`: the EC in data set [1] came out at 1000 nM.

For the origin of these results see ChEMBL document CHEMBL3861984, “Synthesis and evaluation of 2,5 and 2,6 pyridine-based CXCR4 inhibitors” (Bioorg Med Chem, 2016).
